The values below come from patent US5770410A, “Chiral synthesis with modified enzymes” (Genzyme Corporation, priority 1992, dated 1998).

The Km is the concentration of substrate that gives half-maximal velocity. A word on the kcat: it is the number of substrate molecules converted per active site and unit of time at saturation.

Format in all cases: biochemical
Test [1] concerns the target T1, Bacillus stearothermophilus lactate dehydrogenase loop exchange mutant SL1 (short loop) (Geobacillus stearothermophilus, UniProt P00344, A222G/A223G/C81T, form not given).
T1 construct: purified; +/- FBP
Description: Steady-state kinetics, NADH-dependent reduction of 2-oxo acids (A340). The note with it: 25° C., pH 6. The method, then:
(§1) Each pair of overlapping oligonucleotides (20 μM of each) were subjected to 30 cycles of annealing and extension (94° C. for 1 minute, cool to 45° C. for 2 minutes, 45° C. for 1 minute, heat to 72° C. in 1 minute, 72° C. for 1 minute in 50 μl containing 0.05M KCl , 10 mM Tris pH 8.3, 1.5 mM MgCl2, 0.01% gelatin), 200 μM of each dNTP and 2.5 units TAQ DNA polymerase). The double-stranded DNA product was purified and then cut with SacII and XbaI before ligating it into the plasmid pLDHrs cut with the same enzymes. The ligated products were restricted with MluI to cleave wild-type plasmid pLDHrs.
(§2) Overnight cultures (11) were centrifuged and the packed cells were resuspended in 50 mM triethanolamine, pH 6.0. The cells were sonicated and the debris was removed by centrifugation. The protein in the supernatant was precipitated by the addition of 65% ammonium sulphate. The precipitate was spun down and resuspended in 50 mM triethanolamine, pH 6.0 and dialysed against the same buffer. After dialysis, NADH and FBP were added to the protein to final concentrations of 5 mM and 10 mM before loading onto an oxamate Sepharose column which had been pre-equilibrated with 50 mM triethanoloamine, pH 6.0, 3 mM NADH and 5 mM FBP. After washing off unbound protein with column buffer mutant LDH was eluted with 50 mM triethanolamine, pH 9.0, 0.3 M NaCl. The elutant was precipitated with 65% ammonium sulphate and then resuspended in and dialysed against 50 mM triethanolamine, pH 7.5. The protein was then loaded onto a Q-Sepharose Fast Flow column and eluted with a salt gradient. LDH eluted at a concentration of 0.25M NaCl. For the double glycine mutant enzyme, the first chromatography procedure with oxamate Sepharose was replaced by chromatography on Blue Sepharose -F3GA, otherwise the procedure was essentially the same. All proteins were judged to be greater than 98% pure from the intensity of Coomassie blue staining on an SDS Phast gel (Pharmacia). The yield of protein was usually 0.2 g/l of original broth.
(§3) Steady-state measurements were made by following the reduction in absorbance at 340 nm in the NADH/NAD^+ conversion. All assays were at 25° C. in the buffer Bis-Tris, pH 6, (20 mM), containing KC1 (50 mM) and when used fructose-1,6-bisphosphate at 5 mM. Protein concentration was determined from the absorbance at 280 nm using the value of 0.91 for 1 mg/ml protein in 1 cm path and an Mr of 33,000.
(§4) The specific substrates used in the evaluations are shown in the left column of Table 4. In Table 4, "235/6GG" denotes the mutant enzyme formed by substituting GlyGly for AlaAla at the 235-236 positions of the enzyme (Wilks et al., Biochemistry 1990, 29, 8587-8591), and "WTrs" denotes a mutant derived from the wild-type strain as shown in FIG. 1 of Wilks et al., Biochemistry 1992, 31, 7802-7806.

In test [2] the test system is Bacillus stearothermophilus lactate dehydrogenase loop exchange mutant BIG LOOP (loop SEQ ID No: 10). The test is described as above. The note with it: 25° C., pH 6. The method, then: as §1, §2, §3, §4
The target of test [3] is T2, Bacillus stearothermophilus lactate dehydrogenase loop exchange mutant SL2 (short loop) (Geobacillus stearothermophilus, UniProt P00344, A222G/A223G/C81T, form not given).
T2 construct: purified; +/- FBP
The test is described as above. The note with it: 25° C., pH 6. As for the experimental part: as §1, §2, §3, §4

Test [4] has as its target T3, Bacillus stearothermophilus lactate dehydrogenase, wild type, SEQ ID NO: 3 (Geobacillus stearothermophilus, UniProt P00344).
T3 construct: made in house; host or cells: E. coli
Described as above. The note with it: estimate, steady state kinetic measurements. As for the experimental part:
as §2, with “For the double glycine mutant enzyme, the first chromatography procedure with oxamate Sepharose was replaced by chromatography on Blue Sepharose -F3GA, otherwise the procedure was essentially the same. All proteins were judged to be greater than 98% pure from the intensity of Coomassie blue staining on an SDS Phast gel (Pharmacia). The yield of protein was usually 0.2 g/l of original broth.” left out
Steady-state measurements were made by following the reduction in absorbance at 340 nm in the NADH/NAD^+ conversion. […] Protein concentration was determined from the absorbance at 280 nm using the value of 0.91 for 1 mg/ml protein in 1 cm path and an Mr of 33,000. […]

Test [5] has as its target T4, Bacillus stearothermophilus lactate dehydrogenase mutant MVS/GG (MetValSer for GlnLysPro at 102-105, GlyGly for AlaAla at 235-236) (Geobacillus stearothermophilus, UniProt P00344, A222G/A223G/K87V/P88S/Q86M).
T4 construct: made in house; host or cells: E. coli
Description: Steady state kinetic measurements, reduction of 4-methyl-2-oxo-3-pentenoic acid. The method, then: The mutation where alanines at 235,236 are replaced by glycines has been combined with three mutations in the mobile polypeptide loop (residues 98-112), namely […] by methionine, lysine 103 by valine and proline 105 by serine (MVS/GG).
as §3
Reduction of 4-methyl-2-oxo-3-pentenoic acid using MVS/GG (the mutant enzyme formed by substituting MetValSer for GlnLysPro at the 102-105 positions and GlyGly for AlaAla at the 235-236 positions): […]

T1 sequence (P00344 whole entry C81T/A222G/A223G, form open): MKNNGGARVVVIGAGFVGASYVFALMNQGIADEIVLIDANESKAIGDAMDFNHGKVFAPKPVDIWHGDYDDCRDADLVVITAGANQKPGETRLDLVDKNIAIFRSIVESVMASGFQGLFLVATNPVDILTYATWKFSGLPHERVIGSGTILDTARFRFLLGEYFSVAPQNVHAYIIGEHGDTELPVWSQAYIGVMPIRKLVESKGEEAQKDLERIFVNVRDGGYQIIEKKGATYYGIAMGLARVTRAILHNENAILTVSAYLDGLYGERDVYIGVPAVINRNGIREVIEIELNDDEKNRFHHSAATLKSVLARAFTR
T2 sequence (P00344 whole entry C81T/A222G/A223G, form open): as above
T3 sequence (P00344 whole entry): as the sequence (P00344 whole entry C81T/A222G/A223G, form open) above, with T81C, G222A, G223A counted along it
T4 sequence (P00344 whole entry Q86M/K87V/P88S/A222G/A223G): as the sequence (P00344 whole entry C81T/A222G/A223G, form open) above, with T81C, Q86M, K87V, P88S counted along it

`O=C(O)C(=O)CCc1ccccc1` [2-OXO-4-PHENYL BUTANOATE, 2-oxo-4-phenyl butanoic acid]: the Km in test [1] (+FBP (5 mM)) worked out at 4 mM; in test [1] (-FBP), 4 mM; in test [2] (+FBP (5 mM)), 7 mM; in test [2] (-FBP), 12 mM; in test [3] (+FBP (5 mM)), 4 mM; in test [3] (-FBP), 4 mM. The kcat in test [1] (+FBP (5 mM)) was 0.03 s⁻¹; in test [1] (-FBP) it was 0.002 s⁻¹; in test [2] (+FBP (5 mM)), 1.0 s⁻¹; in test [2] (-FBP) it was 0.1 s⁻¹; in test [3] (+FBP (5 mM)), 0.2 s⁻¹; in test [3] (-FBP) it was 0.01 s⁻¹. Besides, the “kcat /KM” value turned out to be 7.5 M⁻¹ s⁻¹ in test [1] (+FBP (5 mM)), 143 M⁻¹ s⁻¹ in test [2] (+FBP (5 mM)), 50 M⁻¹ s⁻¹ in test [3] (+FBP (5 mM)) and 2.5 M⁻¹ s⁻¹ in test [3] (-FBP).

Consider `CC(C)=CC(=O)C(=O)O` [4-methyl-2-oxo-3-pentenoic acid], for which the turnover in test [4] is on record as 0.03 S^-1; in test [5], 1.2 S^-1.

Consider `CCCCC(=O)C(=O)O` [KETO CAPROATE, α-ketocaproate], for which the Km in test [1] (+FBP (5 mM)) was 16 mM; in test [1] (-FBP), 20 mM; in test [3] (+FBP (5 mM)), 25 mM; in test [3] (-FBP), 60 mM.

`CC(C)CC(=O)C(=O)O` [KETOISO CAPROATE, α-ketoisocaproate]: the Km amounted to 20 mM in test [1] (+FBP (5 mM)), 40 mM in test [1] (-FBP), 25 mM in test [3] (+FBP (5 mM)) and 30 mM in test [3] (-FBP).

With `CC(=O)C(=O)O` [PYRUVATE, pyruvate], the Km in test [1] (+FBP (5 mM)) is 0.08 mM; in test [3] (+FBP (5 mM)) it was 0.065 mM; in test [3] (-FBP) it was 0.5 mM.
